{"source": "patent US12472282B2", "about": "“Bioengineered wharton's jelly derived extracellular matrix” (University of Rochester, priority 2018, dated 2025)", "test_system": "primary acute myeloid leukemia (AML) cells", "experiment": "Response to chemotherapy following treatment with doxorubicin, DWJM culture vs suspension culture", "format": "cell-based, human", "description": "AML patient samples collected by leukapheresis were cultured in DWJM disks for one week. Non-adherent cells were first aspirated and adherent cells were separately isolated and assessed for viability, apoptosis, and colony forming unit (CFU). RNA sequencing was performed at the end of culture. Response to chemotherapy following treatment with doxorubicin was also assessed. For all studies, DWJM-adherent and non-adherent cells were compared to suspension culture controls. Metabolic pathway analyses were conducted using enzyme-linked immunosorbent assay (ELISA). One-tailed t-test was used for comparison between the groups"}
{"smiles": "COc1cccc2c1C(=O)c1c(O)c3c(c(O)c1C2=O)C[C@@](O)(C(=O)CO)C[C@@H]3O[C@H]1C[C@H](N)[C@H](O)[C@H](C)O1", "note": "[doxorubicin]", "values": [{"measurement": "CFU activity after doxorubicin", "setting": "co-culture with DWJM, P=0.047", "result": "3.3 /300,000 cells"}, {"measurement": "CFU activity after doxorubicin", "setting": "suspension culture cells", "result": "0.3 /300,000 cells"}]}
